Experimental data as given in patent publication US20060069132A1, “Azolecarboxamide herbicides” (priority 2004, published 2006).

Assays:
barnyardgrass [1] = experiment: Test B pre-/postemergence herbicide test; format: in vivo, Echinochloa crus-galli; conditions: for Barnyardgrass plant response rating: postemergence
How it was run: (§1)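 Flooded paddy rice and barnyardgrass were treated at the 2-leaf stage; upland plantings received compound either on sown seed or on 1- to 4-leaf seedlings. All were kept 13–15 days in a greenhouse and scored visually, 0–100, relative to untreated plants.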

Surinam grass = experiment: Test B pre-/postemergence herbicide test; format: in vivo, Urochloa decumbens; conditions: for Surinam Grass plant response rating: postemergence
How it was run: (§2)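 Herbicidal effect was judged by eye on a 0–100 scale after plants stood 13 to 15 days in the greenhouse following pre- or postemergence treatment with surfactant-containing formulations.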

cocklebur = experiment: Test B pre-/postemergence herbicide test; format: in vivo, Xanthium strumarium; conditions: for Cocklebur plant response rating: postemergence
How it was run: as §1

corn = experiment: Test B pre-/postemergence herbicide test; format: in vivo, Zea mays; conditions: for Corn plant response rating: postemergence
How it was run: as §2

large crabgrass = experiment: Test B pre-/postemergence herbicide test; format: in vivo, Digitaria sanguinalis; conditions: for Crabgrass, Large plant response rating: postemergence
How it was run: as §2

giant foxtail = experiment: Test B pre-/postemergence herbicide test; format: in vivo, Setaria faberi; conditions: for Foxtail, Giant plant response rating: postemergence
How it was run: as §2

lambsquarters = experiment: Test B pre-/postemergence herbicide test; format: in vivo, Chenopodium album; conditions: for Lambsquarters plant response rating: postemergence
How it was run: as §2

morningglory = experiment: Test B pre-/postemergence herbicide test; format: in vivo, Ipomoea coccinea; conditions: for Morningglory plant response rating: postemergence
How it was run: as §1

pigweed = experiment: Test B pre-/postemergence herbicide test; format: in vivo, Amaranthus retroflexus; conditions: for Pigweed plant response rating: postemergence
How it was run: as §2

velvetleaf = experiment: Test B pre-/postemergence herbicide test; format: in vivo, Abutilon theophrasti; conditions: for Velvetleaf plant response rating: postemergence
How it was run: as §2

blackgrass = experiment: Test B postemergence herbicide test; format: in vivo, Alopecurus myosuroides; conditions: postemergence
How it was run: (§3)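 After treating 2-leaf paddy plants or 2–18 cm postemergence plants (1 to 4 leaves) with formulated chemical, researchers kept them in a greenhouse for 13–15 days. Effects were judged visually versus controls: 0 indicates none, 100 total control.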

wheat = experiment: Test B postemergence herbicide test; format: in vivo, Triticum aestivum; parameters: key to Wheat plant response rating: 0 = no effect, 100 = complete control; conditions: postemergence
How it was run: as §3

wild oat = experiment: Test B postemergence herbicide test; format: in vivo, Avena fatua; conditions: postemergence
How it was run: as §3

rice = experiment: Test B flooded paddy test; format: in vivo, Oryza sativa; conditions: 1000 g ai/ha, scale 0 to 100 (0 no effect, 100 complete control)
How it was run: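 Treated at 2-leaf (paddy) or 1–4-leaf, 2–18 cm (postemergence); greenhouse 13–15 d; visual score vs control, 0 none to 100 complete control; dash = not tested.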

[2] = tested on: small flower umbrella sedge; experiment: Test B flooded paddy test; format: in vivo, Cyperus difformis; conditions: 1000 g ai/ha, scale 0 to 100 (0 no effect, 100 complete control)
How it was run: as §3

ducksalad = experiment: Test B flooded paddy test; format: in vivo, Heteranthera limosa; conditions: 1000 g ai/ha, scale 0 to 100 (0 no effect, 100 complete control)
How it was run: as §3

barnyardgrass [3] = experiment: Test B flooded paddy test; format: in vivo, Echinochloa crus-galli; conditions: 1000 g ai/ha, scale 0 to 100 (0 no effect, 100 complete control)
How it was run: as §3

[4] = 125 g ai/ha, 0 is no effect, 100 is complete control, preemergence
[5] = 125 g ai/ha, visual rating, scale 0 (no effect) to 100 (complete control)
[6] = 500 g ai/ha, visual rating, 0 = no effect, 100 = complete control, preemergence
[7] = 500 g ai/ha, scale 0 to 100, 0 is no effect, 100 is complete control

CCc1nn(C(C)(C)C)nc1C(=O)Nc1cc(C(=O)N(C)C)ccc1F [Compound 361]
Plant response rating (0 to 100 scale), Barnyardgrass (barnyardgrass [1]; [4]): 80 | Barnyardgrass plant response rating (barnyardgrass [1]; [5]): 0 | Plant response rating, Barnyardgrass (barnyardgrass [1]; [6]): 100 | Barnyardgrass plant response rating (barnyardgrass [1]; [7]): 10 | Plant response rating (0 to 100 scale), Surinam Grass (Surinam grass; [4]): 50 | Surinam Grass plant response rating (Surinam grass; [5]): 10 | Plant response rating, Surinam Grass (Surinam grass; [6]): 90 | Surinam Grass plant response rating (Surinam grass; [7]): 10 | Plant response rating (0 to 100 scale), Cocklebur (cocklebur; [4]): 0 | Cocklebur plant response rating (cocklebur; [5]): 10 | Plant response rating, Cocklebur (cocklebur; [6]): 50 | Cocklebur plant response rating (cocklebur; [7]): 20 | Plant response rating (0 to 100 scale), Corn (corn; [4]): 30 | Corn plant response rating (corn; [5]): 0 | Plant response rating, Corn (corn; [6]): 70 | Corn plant response rating (corn; [7]): 0 | Plant response rating (0 to 100 scale), Crabgrass, Large (large crabgrass; [4]): 80 | Crabgrass, Large plant response rating (large crabgrass; [5]): 10 | Plant response rating, Crabgrass, Large (large crabgrass; [6]): 100 | Crabgrass, Large plant response rating (large crabgrass; [7]): 10 | Plant response rating (0 to 100 scale), Foxtail, Giant (giant foxtail; [4]): 50 | Foxtail, Giant plant response rating (giant foxtail; [5]): 20 | Plant response rating, Foxtail, Giant (giant foxtail; [6]): 100 | Foxtail, Giant plant response rating (giant foxtail; [7]): 30 | Plant response rating (0 to 100 scale), Lambsquarters (lambsquarters; [4]): 80 | Lambsquarters plant response rating (lambsquarters; [5]): 70 | Plant response rating, Lambsquarters (lambsquarters; [6]): 100 | Lambsquarters plant response rating (lambsquarters; [7]): 70 | Plant response rating (0 to 100 scale), Morningglory (morningglory; [4]): 10 | Morningglory plant response rating (morningglory; [5]): 10 | Plant response rating, Morningglory (morningglory; [6]): 60 | Morningglory plant response rating (morningglory; [7]): 80 | Plant response rating (0 to 100 scale), Pigweed (pigweed; [4]): 80 | Pigweed plant response rating (pigweed; [5]): 20 | Plant response rating, Pigweed (pigweed; [6]): 100 | Pigweed plant response rating (pigweed; [7]): 40 | Plant response rating (0 to 100 scale), Velvetleaf (velvetleaf; [4]): 20 | Velvetleaf plant response rating (velvetleaf; [5]): 10 | Velvetleaf plant response rating (velvetleaf; [7]): 30 | Blackgrass plant response rating (blackgrass; [5]): 10 | Blackgrass plant response rating (blackgrass; [7]): 40 | Wheat plant response rating (wheat; [5]): 0 | Wheat plant response rating (wheat; [7]): 0 | Oat, Wild plant response rating (wild oat; [5]): 0 | Oat, Wild plant response rating (wild oat; [7]): 20 | Rice plant response rating (rice): 90 | Sedge, Umbrella plant response rating [2]: 90 | Ducksalad plant response rating (ducksalad): 90 | Barnyardgrass plant response rating (barnyardgrass [3]): 80
